The source of these data is ChEMBL document CHEMBL1201862, “PubChem BioAssay data set” (2004).

Calls of active or inactive are those of the source.

The nature of experiment [1]: HEK-293T cell viability reduction – luminescence, B-cell screen hits, cytotoxicity control for BCR NF-kB inhibitor project, dose response (AID 489021).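 Further: HEK-293T cells carrying an NF-kB luciferase reporter; cells exposed to compound for about 14 hours before viability readout.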 Format: functional, cell-based.
Experiment [2] deals with Induced myeloid leukemia cell differentiation protein Mcl-1 (Homo sapiens, UniProt Q07820). The format is functional.
Induced myeloid leukemia cell differentiation protein Mcl-1, sequence (Q07820 whole entry, the tested form may be a part): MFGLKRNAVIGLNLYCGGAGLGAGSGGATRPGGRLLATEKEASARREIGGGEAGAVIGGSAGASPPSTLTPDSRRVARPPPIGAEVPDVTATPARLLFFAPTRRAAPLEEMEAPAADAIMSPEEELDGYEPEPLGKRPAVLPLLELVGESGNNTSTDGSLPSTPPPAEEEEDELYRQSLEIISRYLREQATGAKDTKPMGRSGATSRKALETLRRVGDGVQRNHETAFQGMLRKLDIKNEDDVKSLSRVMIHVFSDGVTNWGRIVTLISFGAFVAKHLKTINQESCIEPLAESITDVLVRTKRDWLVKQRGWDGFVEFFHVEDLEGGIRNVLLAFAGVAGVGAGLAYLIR
Experiment [3] deals with T1, Polyadenylate-binding protein 1 (Homo sapiens, UniProt P11940). The experiment can be described thus: MLLE domain peptide-binding blockers, IC50 – biochemical, fluorescence polarization, FITC-PAM2 peptide, dose response (AID 602259). The format is functional. The conditions noted are these: read-out: IC50_Mean.
T1 sequence (P11940 whole entry, the tested form may be a part): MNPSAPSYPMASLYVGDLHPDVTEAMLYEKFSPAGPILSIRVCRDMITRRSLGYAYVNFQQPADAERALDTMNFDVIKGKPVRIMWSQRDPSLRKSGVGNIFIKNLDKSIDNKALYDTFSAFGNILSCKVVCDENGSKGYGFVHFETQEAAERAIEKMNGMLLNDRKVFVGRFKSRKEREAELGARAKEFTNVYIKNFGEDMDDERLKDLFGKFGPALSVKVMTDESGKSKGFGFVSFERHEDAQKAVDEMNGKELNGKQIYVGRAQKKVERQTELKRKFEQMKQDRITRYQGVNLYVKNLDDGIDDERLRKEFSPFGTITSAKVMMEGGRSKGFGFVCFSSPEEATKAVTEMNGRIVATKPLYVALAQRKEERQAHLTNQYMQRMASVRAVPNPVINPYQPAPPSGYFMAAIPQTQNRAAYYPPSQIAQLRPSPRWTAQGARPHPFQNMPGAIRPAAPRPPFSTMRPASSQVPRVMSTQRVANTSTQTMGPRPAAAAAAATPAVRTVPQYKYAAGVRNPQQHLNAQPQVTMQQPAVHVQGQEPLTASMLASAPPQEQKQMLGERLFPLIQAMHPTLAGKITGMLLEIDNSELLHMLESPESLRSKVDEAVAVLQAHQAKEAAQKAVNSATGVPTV
In experiment [4] the target is T2, Zinc finger protein mex-5 (Caenorhabditis elegans, UniProt Q9XUB2).
T2 sequence (Q9XUB2 whole entry): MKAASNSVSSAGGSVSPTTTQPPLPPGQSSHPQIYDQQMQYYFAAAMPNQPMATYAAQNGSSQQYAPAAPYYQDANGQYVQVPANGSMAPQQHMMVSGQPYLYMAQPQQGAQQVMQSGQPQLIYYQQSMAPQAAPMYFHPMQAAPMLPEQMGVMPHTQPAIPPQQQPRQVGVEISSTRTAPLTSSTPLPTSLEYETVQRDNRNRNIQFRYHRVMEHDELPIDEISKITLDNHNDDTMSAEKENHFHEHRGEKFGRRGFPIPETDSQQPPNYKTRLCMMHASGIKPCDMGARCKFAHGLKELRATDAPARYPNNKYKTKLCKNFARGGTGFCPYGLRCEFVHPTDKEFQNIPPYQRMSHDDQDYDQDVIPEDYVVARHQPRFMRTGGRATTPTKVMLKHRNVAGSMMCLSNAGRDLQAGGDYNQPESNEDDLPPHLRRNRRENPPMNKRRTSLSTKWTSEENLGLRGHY
In words: potency of MEX-5 RNA-binding blockers – biochemical, C. elegans, fluorescence polarization, dose response (AID 1960). Background: In fluorescence polarisation assays a small probe gives low polarisation when free and higher when bound to something large.

The target of experiment [5] is T3, RNA-binding protein pos-1 (Caenorhabditis elegans, UniProt G5EF15).
T3 sequence (G5EF15 whole entry): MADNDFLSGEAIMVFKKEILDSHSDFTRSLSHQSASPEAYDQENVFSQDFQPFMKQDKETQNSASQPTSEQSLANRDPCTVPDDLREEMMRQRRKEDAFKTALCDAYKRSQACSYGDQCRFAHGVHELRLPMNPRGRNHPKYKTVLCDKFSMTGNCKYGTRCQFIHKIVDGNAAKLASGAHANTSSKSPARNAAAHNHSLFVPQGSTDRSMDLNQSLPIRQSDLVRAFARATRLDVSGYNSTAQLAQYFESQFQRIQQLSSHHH
The experiment can be described thus: disruptors of C. elegans POS-1 RNA interaction – biochemical, fluorescence polarization, dose response (AID 1964).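 Further: purified POS-1 fused to maltose binding protein made in E. coli; potency of compounds blocking POS-1 binding to fluorescent RNA.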

Experiment [6] has as its target T1, Polyadenylate-binding protein 1. The experiment can be described thus: MLLE binding blockers, Cy5 peptide tracer – biochemical, fluorescence polarization, Cy5-PAM2 peptide, secondary, miRNA deadenylation inhibitor project, dose response (AID 602260). Conditions: read-out: IC50_Mean. Format: functional.
For experiment [7], the target named is Genome polyprotein (dengue virus type 2, UniProt P29990). The experiment can be described thus: flavivirus cap methylation enzyme inhibition – biochemical, confirmation dose response, primary screen (AID 588689). Format: functional.
Genome polyprotein, sequence (P29990 2492-3391 limits assumed): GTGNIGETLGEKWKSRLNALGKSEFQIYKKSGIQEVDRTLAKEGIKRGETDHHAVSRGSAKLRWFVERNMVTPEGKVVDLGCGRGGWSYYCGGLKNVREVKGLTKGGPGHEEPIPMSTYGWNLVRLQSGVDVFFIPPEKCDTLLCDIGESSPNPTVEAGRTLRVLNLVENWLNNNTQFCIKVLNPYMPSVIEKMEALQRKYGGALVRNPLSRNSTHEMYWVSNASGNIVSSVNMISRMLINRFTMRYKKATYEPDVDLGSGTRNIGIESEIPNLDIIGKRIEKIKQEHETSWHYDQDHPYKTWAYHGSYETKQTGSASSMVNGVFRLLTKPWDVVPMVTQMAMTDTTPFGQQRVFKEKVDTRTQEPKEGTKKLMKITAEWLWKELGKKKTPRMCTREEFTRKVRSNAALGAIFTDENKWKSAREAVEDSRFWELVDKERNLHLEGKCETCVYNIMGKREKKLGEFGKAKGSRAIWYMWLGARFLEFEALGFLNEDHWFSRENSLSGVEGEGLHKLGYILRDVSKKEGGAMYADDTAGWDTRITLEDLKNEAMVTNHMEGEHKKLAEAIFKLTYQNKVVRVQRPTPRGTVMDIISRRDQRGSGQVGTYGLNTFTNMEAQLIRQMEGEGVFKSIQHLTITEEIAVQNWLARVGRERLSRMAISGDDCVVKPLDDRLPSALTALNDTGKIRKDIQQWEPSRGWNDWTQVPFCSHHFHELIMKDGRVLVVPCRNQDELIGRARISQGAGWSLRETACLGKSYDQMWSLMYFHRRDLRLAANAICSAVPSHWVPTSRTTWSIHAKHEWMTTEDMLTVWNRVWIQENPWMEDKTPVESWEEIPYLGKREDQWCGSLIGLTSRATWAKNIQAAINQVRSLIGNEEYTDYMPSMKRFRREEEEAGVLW
For experiment [8], the target named is Estrogen receptor beta (Homo sapiens, UniProt Q92731). In words: blockers of SRC-3 recruitment to ERβ – biochemical, ELISA, streptavidin-HRP readout, orthogonal assay, confirmation (AID 1060).
Estrogen receptor beta, sequence (Q92731 whole entry): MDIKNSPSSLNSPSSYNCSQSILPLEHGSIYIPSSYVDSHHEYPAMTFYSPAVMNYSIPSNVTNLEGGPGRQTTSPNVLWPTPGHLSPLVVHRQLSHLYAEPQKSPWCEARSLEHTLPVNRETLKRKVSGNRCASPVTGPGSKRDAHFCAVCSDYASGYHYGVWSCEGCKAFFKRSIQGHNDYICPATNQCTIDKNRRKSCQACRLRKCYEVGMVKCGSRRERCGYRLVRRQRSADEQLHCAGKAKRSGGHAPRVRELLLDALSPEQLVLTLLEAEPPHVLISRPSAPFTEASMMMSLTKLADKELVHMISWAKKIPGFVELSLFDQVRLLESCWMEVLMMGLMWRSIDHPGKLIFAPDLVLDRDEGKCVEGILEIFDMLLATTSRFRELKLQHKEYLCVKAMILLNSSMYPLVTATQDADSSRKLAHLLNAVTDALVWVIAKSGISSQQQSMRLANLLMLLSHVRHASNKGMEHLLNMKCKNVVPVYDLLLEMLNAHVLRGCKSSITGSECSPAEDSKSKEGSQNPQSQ
In experiment [9] the target is T4, Estrogen receptor (Homo sapiens, UniProt P03372).
T4 sequence (P03372 whole entry): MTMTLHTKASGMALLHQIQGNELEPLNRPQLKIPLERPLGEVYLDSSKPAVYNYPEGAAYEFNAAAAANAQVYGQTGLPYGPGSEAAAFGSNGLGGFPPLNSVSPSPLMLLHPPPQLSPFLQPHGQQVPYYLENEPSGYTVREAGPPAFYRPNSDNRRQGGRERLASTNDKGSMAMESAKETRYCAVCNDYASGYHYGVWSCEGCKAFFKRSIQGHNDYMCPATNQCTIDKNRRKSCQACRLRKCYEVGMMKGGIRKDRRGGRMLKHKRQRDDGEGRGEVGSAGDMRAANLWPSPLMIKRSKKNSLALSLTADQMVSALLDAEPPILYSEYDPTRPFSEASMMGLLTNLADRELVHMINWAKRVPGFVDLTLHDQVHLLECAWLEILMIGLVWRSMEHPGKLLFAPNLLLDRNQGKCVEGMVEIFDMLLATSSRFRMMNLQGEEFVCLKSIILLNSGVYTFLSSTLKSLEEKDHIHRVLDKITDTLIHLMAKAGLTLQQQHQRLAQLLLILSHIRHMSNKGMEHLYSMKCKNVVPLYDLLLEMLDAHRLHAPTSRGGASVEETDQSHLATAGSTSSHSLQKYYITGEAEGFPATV

For experiment [10], the system named is HT-1080. In words: HT1080 cell viability loss – fluorescence readout (AID 620). The conditions noted are these: Homo sapiens. The format is functional, cell-based.
For experiment [11], the target named is Luciferin 4-monooxygenase (Photinus pyralis, UniProt P08659). In words: Counter Screen for Luciferase-based Assay Positives. [Related pubchem assays: 620, 618, 411 ]. (In general: The purpose of a counterscreen is to sort out artefacts and off-target activity.)
Luciferin 4-monooxygenase, sequence (P08659 whole entry): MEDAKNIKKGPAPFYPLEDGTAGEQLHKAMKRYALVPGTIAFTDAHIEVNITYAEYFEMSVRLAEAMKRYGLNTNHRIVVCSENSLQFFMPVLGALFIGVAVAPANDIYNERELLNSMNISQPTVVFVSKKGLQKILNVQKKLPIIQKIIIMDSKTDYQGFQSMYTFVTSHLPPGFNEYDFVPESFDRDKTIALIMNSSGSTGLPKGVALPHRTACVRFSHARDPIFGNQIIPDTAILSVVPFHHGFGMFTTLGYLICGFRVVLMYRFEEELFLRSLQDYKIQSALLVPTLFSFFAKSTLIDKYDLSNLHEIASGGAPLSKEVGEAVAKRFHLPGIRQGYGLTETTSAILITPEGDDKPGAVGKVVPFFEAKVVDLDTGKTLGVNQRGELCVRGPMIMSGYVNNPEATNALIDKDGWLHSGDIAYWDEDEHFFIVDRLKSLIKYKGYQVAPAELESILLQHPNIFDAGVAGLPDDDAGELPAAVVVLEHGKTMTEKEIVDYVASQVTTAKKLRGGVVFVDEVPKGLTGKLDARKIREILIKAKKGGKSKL
For experiment [12], the target named is DNA dC->dU-editing enzyme APOBEC-3G (Homo sapiens, UniProt Q9HC16). The experiment can be described thus: Dose Response confirmation of small molecule APOBEC3G DNA Deaminase Inhibitors via a fluorescence-based single-stranded DNA deaminase assay. [Related pubchem assays (depositor defined):AID493012, AID493028]. Format: functional.
DNA dC->dU-editing enzyme APOBEC-3G, sequence (Q9HC16 whole entry): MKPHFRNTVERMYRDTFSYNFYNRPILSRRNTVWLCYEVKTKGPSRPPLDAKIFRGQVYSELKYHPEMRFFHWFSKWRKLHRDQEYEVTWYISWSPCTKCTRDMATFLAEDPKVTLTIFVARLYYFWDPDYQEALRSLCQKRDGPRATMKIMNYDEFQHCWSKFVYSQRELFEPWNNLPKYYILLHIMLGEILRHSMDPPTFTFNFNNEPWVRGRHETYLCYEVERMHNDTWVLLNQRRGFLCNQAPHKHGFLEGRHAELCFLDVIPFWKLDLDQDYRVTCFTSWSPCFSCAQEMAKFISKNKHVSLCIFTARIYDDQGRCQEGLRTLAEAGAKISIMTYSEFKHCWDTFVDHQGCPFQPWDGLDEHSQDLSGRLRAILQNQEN
The target of experiment [13] is Cytochrome P450 3A4 (Homo sapiens, UniProt P08684). The conditions noted are these: Potency.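 Further: confirmatory qHTS run detecting inhibitors and substrates of CYP3A4.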
Cytochrome P450 3A4, sequence (P08684 whole entry): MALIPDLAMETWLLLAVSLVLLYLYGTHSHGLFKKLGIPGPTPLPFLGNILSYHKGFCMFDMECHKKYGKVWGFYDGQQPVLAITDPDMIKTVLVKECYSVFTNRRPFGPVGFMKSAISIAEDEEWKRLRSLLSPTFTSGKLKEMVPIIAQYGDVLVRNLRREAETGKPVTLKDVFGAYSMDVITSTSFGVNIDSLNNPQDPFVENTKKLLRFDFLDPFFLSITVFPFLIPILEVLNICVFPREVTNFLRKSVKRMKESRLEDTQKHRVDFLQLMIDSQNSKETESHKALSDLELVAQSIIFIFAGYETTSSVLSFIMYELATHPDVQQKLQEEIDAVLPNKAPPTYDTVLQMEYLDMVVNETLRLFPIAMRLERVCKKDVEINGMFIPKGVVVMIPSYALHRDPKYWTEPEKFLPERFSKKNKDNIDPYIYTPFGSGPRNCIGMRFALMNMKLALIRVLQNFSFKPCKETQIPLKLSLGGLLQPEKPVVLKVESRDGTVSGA
For experiment [14], the target named is T5, Streptokinase A (Streptococcus pyogenes serotype M1, UniProt P10520).
T5 sequence (P10520 whole entry): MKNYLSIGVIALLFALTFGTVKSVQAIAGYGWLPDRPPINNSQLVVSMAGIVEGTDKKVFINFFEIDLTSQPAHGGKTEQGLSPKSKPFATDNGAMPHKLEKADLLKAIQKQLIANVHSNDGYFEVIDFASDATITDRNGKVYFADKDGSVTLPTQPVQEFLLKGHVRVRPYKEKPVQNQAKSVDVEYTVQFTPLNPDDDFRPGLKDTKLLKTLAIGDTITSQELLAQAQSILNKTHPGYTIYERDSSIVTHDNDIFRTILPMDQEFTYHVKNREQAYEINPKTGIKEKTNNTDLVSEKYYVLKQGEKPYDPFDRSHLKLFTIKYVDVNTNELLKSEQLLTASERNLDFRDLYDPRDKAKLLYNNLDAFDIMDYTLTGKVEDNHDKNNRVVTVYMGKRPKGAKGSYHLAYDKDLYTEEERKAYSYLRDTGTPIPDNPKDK
The experiment can be described thus: viability-normalized secreted streptokinase activity reduction – plasminogen activation absorbance, OD405, dose response (AID 1914).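 Further: secreted streptokinase activity via plasminogen activation per viability signal from cell pellet.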 The format is functional, Streptococcus pyogenes M1 GAS.

The test system of experiment [15] is Streptococcus. The experiment can be described thus: GAS UMAA2166 growth inhibition – luminescence, BacTiterGlo, counter-screen for streptokinase expression inhibitor project, dose response (AID 1915).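 Further: potency for reduction of bacterial viability or growth.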 The format is functional, organism-based.
A short description of experiment [16]: A Cell Based Secondary Assay To Explore Cytotoxicity of Compounds that Sensitize Mycobacterium Tuberculosis to Beta-Lactam Antibiotics. The format is functional.
Experiment [17] relates to Streptococcus sp. 'group A'. The experiment can be described thus: Streptococcus pyogenes SK(-)GAS viability under kanamycin – luminescence, BacTiterGlo, confirmation, counter-screen for streptokinase expression inhibitor project, dose response (AID 1900). Format: functional, organism-based.
Experiment [18] is described as follows: NIH3T3 cell viability loss – ATP luminescence, mouse fibroblasts, counter-screen, dose response (AID 2010).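 Further: cells exposed to compound for about 90 hours before reading.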 Format: functional, cell-based.
Experiment [19] can be described thus: viability of HCT116 lacking mutant beta-catenin – cell-based, human colon tumor, dose response (AID 1045).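 Further: HCT116 colon tumor cells with beta catenin knocked out; cells exposed to compound for 60 hours.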 Format: functional.
Experiment [20] can be described thus: Trypanosoma cruzi growth suppression in host cells – NIH3T3 host cells, beta-gal luminescence, confirmation (AID 2044).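 Further: intracellular parasites grown in NIH/3T3 mouse fibroblasts as host cells; luminescent beta-galactosidase reporter signal from transgenic T. cruzi replicating inside host cells; inhibitors lower the luminescence signal.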 Format: functional, cell-based.
Experiment [21] in a line: viability of PTEN-deleted HCT116 cells – cell-based, HCT116 PTEN knockout, dose response (AID 1047).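 Further: HCT116 colon tumor cells with PTEN knocked out; cells exposed to compound for 60 hours before readout; potency for loss of cell viability measured by luminescence.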 The format is functional.
The target of experiment [22] is T6, Cytochrome P450 1A2 (Homo sapiens, UniProt P05177).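 Further: PubChem cytochrome P450 panel assay, CYP1A2 panel member.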
T6 sequence (P05177 whole entry): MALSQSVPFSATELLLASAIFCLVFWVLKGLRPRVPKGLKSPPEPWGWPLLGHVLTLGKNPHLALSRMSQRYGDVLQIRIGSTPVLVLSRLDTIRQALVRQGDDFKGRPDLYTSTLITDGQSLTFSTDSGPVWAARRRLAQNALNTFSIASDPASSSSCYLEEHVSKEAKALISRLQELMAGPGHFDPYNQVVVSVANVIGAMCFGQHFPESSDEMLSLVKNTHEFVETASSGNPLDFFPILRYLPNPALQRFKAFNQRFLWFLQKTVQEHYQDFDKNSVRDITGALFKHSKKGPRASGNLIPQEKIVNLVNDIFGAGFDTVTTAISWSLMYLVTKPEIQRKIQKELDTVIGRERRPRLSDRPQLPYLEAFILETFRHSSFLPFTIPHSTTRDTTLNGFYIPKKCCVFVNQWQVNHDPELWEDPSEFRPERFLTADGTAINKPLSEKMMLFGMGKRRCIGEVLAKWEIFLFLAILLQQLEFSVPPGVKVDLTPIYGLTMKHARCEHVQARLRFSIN

As for `CCCc1nc2c(C)cc(-c3nc4ccccc4n3C)cc2n1Cc1ccc(-c2ccccc2C(=O)O)cc1`, the IC50 in [1] is > 80 µM (inactive).
On the same count and under the same terms, the value for `O=C(O)COc1ccc(-c2nccc(-c3ccccn3)n2)cc1` was > 80 µM (inactive).
Consider `O=C(NCCO)c1ccc2nc(-c3ccco3)c(-c3ccco3)nc2c1`, for which the IC50 in [2] is < 0.4 µM (active); in experiment [3], > 66 µM (inactive); in experiment [6] it was > 66 µM (inactive); in experiment [7] it was 67.7 µM (active); in experiment [8], 11.4 µM (not active); in experiment [9], > 50 µM (not active). For the same molecule, the EC50 was 17.5 µM (active) in [4] and > 300 µM (not active) in experiment [5].
On to `Cc1cccc(C(=O)N2CCN(C(=O)c3cccc(C)c3)C(C)C2)c1` (stereo not given), for which the half-maximal effective concentration (EC50) was > 50 µM (not active) in experiment [10] and 10.6 µM (active) in experiment [11].
The like results for `Brc1ccccc1-c1nc(-c2ccccc2)no1` were, in that order, > 50 µM (not active) and 5.42 µM (active).
In the case of `CCCC(C)c1nnc(NC(=O)CCS(=O)(=O)c2ccccc2)s1` (stereo not given), in experiment [12], the IC50 was 32.2 µM (active).
With `COc1cccc(C2C(C)CCC3C(=O)N(C)C(C(C)C)C(=O)N32)c1` (stereo not given), the AC50 in experiment [13] was 2 µM (inconclusive).
The same measure, in the same setting: the value for `COC(=O)C1OC(=O)C2O[C@@]23[C@]2(C)C(OC(C)=O)CC4C(C)(C)C(=O)CC[C@]4(C)C2CC[C@@]13C` (stereo not given in full) was 39.8 µM (inconclusive).
As for `CC(C)CCNC(=O)CCCOc1cc(=O)n(C)c2ccccc12`, in experiment [1], the IC50 was > 80 µM (inactive).
As to `O=C(NCc1ccco1)c1cc2ccccc2c(=O)o1`, the IC50 in [9] is 30.2 µM (not active).
As for `CC1(C)CN=C(Nc2nc3ccccc3s2)S1`, the results for the EC50 in experiment [14], in [15] and in experiment [17] were > 150 µM (not active), > 150 µM (not active) and 15.3 µM (active), respectively. Further, in experiment [16], the CC50 was > 40 µM (active).
As to `CC(C)(C)C(=O)N1CCc2cc(-c3csc(N)n3)ccc21`, the EC50 is > 50 µM (not active) in [10] and 9.92 µM (active) in [11].
With `Cc1nn(Cc2ccc(Cl)cc2)c(C)c1NC(=O)CSc1nc2c(c(C(F)(F)F)n1)CCc1ccccc1-2`, the EC50 was > 60 µM (not active) in experiment [18], 14 µM (active) in experiment [19], 1.72 µM (active) in experiment [20] and 12.8 µM (active) in experiment [21]. Further, the CC50 in experiment [16] was 29 µM (active).
Turning to `O=C(CN(Cc1ccco1)C(=O)c1cccc(Cl)c1)Nc1c(Cl)cc(Cl)cc1Cl`, the CC50 in experiment [16] was 24 µM (active). In addition, the AC50 in experiment [22] is 12.6 µM (inconclusive).
`CC(C)CC(C)Nc1ccc(Nc2ccccc2)cc1` (stereo not given): the AC50 in [13] is 25.1 µM (inconclusive).
On to `CC(C)(C)c1ccc(OCC(O)CSc2nnc[nH]2)cc1` (stereo not given), for which the EC50 in experiment [11] is 1.29 µM (active).
For the molecule `CC(=O)OCC1=C(C(=O)O)N2C(=O)C(NC(=O)Cc3cccs3)C2SC1` (stereo not given), the AC50 in experiment [13] is 31.6 µM (inconclusive).

As a reminder, the EC50 is the concentration at which the effect is half-maximal. As a reminder, the AC50 is the concentration giving half of the maximal activity seen. As usually defined, the CC50 is the concentration that lowers cell viability or growth by half.
